*: point of attachment. NHNH2 = NN*
Tests used:
Type in all cases: cell-based
ARPE19 cells = assay: RLuc pDNA delivery, robotic library screening, ARPE19
HCT116 cells = assay: EGFP mRNA delivery, robotic library screening, HCT116
Experimental: Cells were seeded in a 96 well plate the day before the experiment at a concentration of 50,000 cell/mL (100 μL/w) in DMEM+10% FBS+1% Gln-Abt. For robotic library screening, the delivery of EGFP-mRNA (from TriLink, fully substituted with 5-methoxyuridine, capped and polyadenylated; TriLink, CleanCap® EGFP mRNA (5moU), ref. L-7201) in six different cell lines was performed. Amphiphilic molecule stock solutions were prepared in DMSO as described above and diluted in DMEM to afford a range of concentrations. The solutions of EGFP-mRNA/amphiphilic molecule complexes were freshly prepared prior to the transfection experiments. 35 μL of the corresponding amphiphile were added to 10 μL of a solution of EGFP-mRNA at 10 ng/μL in DMEM. The mixture was shaken for 30 min at room temperature before the addition to the cells. The cell medium was aspirated, and cells were washed with PBS twice. Cells were covered with 39 μL of DMEM and 11 μL of the complex's solution were added to the cells and incubated for 4 h (final concentration of peptide=2.5, 5 and 10 μM; final concentration of EGFP-mRNA=25 ng/well). After the incubation, the medium was replaced by 100 μL of fresh DMEM supplemented with 10% FBS. The total EGFP fluorescence was quantified after 72 h in a well plate reader. Amphiphile transfection efficiency was compared and normalized to Lipofectamine® MessengerMax efficiency (value of 1 in Tables 1-5 and 7; double underlined numbers). All experiments were done in triplicate.
(§1) Tables 1-7: RLuc (pDNA) or EGFP (mRNA) expression levels were normalized to Lipofectamine reagents (value=1) and expressed as fold-times signal increase. In the case of siRNA, the siRNA treated cells fluorescence was compared with siMOCK control fluorescence, while Cas9-RNP mediated knockout was measured against the fluorescence of untreated cells. In both siRNA and Cas9-RNP, values are expressed as % fluorescence reduction. Amphiphile concentration was 5 μM in all cases. All experiments were performed in triplicate.
Tables 14-19 show the mean (triplicates) fluorescence intensity measured after the transfection of EGFP mRNA by different amphiphiles at different concentrations in a variety of cell lines. Background fluorescence values, accounted by untreated control cells, were subtracted for processing.

[1] = tested on: Hela cells expressing EGFP; assay: Cas9-RNP delivery against EGFP (gene editing, plate reader), HeLa; details: for % GFP silencing due to gene editing (Cas9-RNP): HeLa
Experimental: To generate an EGFP expressing HeLa cell line, HeLa cells were transfected with EGFP pDNA (pEGFP-C1, Clontech) and stable transfectants were selected with 400 μg/mL of G-418 (Millipore). Green clones were selected by epifluorescence microscopy and tested for EGFP expression stability through several passages. […] All other EGFP-expressing cell lines were obtained in a similar way from parent non-EGFP-expressing cell lines.
Cells expressing EGFP were seeded in a 96 well plate the day before the experiment at a concentration of 50,000 cell/mL (100 μL/w) in DMEM+10% FBS+1% Gln-Abt. For robotic library screening, the delivery of Cas9-RNP against EGFP (RNP designed to knock-out the gene encoding for the enhanced green fluorescent protein (EGFP)) was performed. For RNP assembly, 9.2 μL of crRNA and 9.2 μL of tracrRNA were mixed in 211.6 μL of Nuclease-Free Duplex Buffer (IDT), incubated for 5 min at 95° C. and slowly cooled at rt (see I. Lostalé-Seijo, et al. Peptide/Cas9 nanostructures for ribonucleoprotein cell membrane transport and gene edition, Chem. Sci., 2017). Cas9 protein was dissolved in DMEM at a final concentration of 4 μM and equal volumes of the RNA complex and Cas9 were mixed and incubated for 5 min at rt. 75 μL of the corresponding amphiphile concentrations were added to 5 μL of RNP at 2 μM. The mixture was shaken for 30 min at room temperature before the addition to the cells. The cell medium was aspirated, and cells were washed twice with PBS. Cells were covered with 30 μL of DMEM and 20 μL of the RNP/amphiphile complexes were added to the cells (final peptide concentrations=2.5, 5 and 10 μM; final Cas9-RNP concentration=50 nM) and incubated for 4 h. After the incubation, the medium was replaced by 100 μL of fresh DMEM supplemented with 10% FBS. The total EGFP fluorescence was quantified after 72 h in a plate reader (FIG. 2, Table 1 (right) and Table 6). All experiments were done in triplicate.
as §1
Tables 26-31 show the mean (triplicates) percentage of gene editing, accounted by GFP fluorescence intensity decrease (% of reduction), measured after the transfection of Cas9-RNP by different amphiphiles at different concentrations in a variety of cell lines. Background values, accounted by untreated control cells, were subtracted for processing.

## Ac-RHLK*RLK*RRLK*RL-NH2 (Ac-RHLKRLKRRLKRL-NH2; not fully specified (residues 4, 7, 11); printed as Ac-RHLK*RLK*RRLK*RL-NH2; also: linker on K* not given here) [13(Arg-His)]
ARPE19 cells; Dodecanal, 5 μM
  mean luminescent intensity (RLuc pDNA): 69520 RLU
ARPE19 cells; Dodecanal, 10 μM
  mean luminescent intensity (RLuc pDNA): 2762 RLU
ARPE19 cells; Myristoleyl, 5 μM
  mean luminescent intensity (RLuc pDNA): 17 RLU
ARPE19 cells; Myristoleyl, 10 μM
  mean luminescent intensity (RLuc pDNA): −31 RLU
ARPE19 cells; Myristoleyl, 15 μM
  mean luminescent intensity (RLuc pDNA): −11 RLU
ARPE19 cells; Oleyl, 5 μM
  mean luminescent intensity (RLuc pDNA): 8369 RLU
ARPE19 cells; Oleyl, 10 μM
  mean luminescent intensity (RLuc pDNA): 2379 RLU
ARPE19 cells; Oleyl, 15 μM
  mean luminescent intensity (RLuc pDNA): 716 RLU
ARPE19 cells; Palmitoleyl, 5 μM
  mean luminescent intensity (RLuc pDNA): 67443 RLU
ARPE19 cells; Palmitoleyl, 15 μM
  mean luminescent intensity (RLuc pDNA): 670 RLU
ARPE19 cells; Petroselinyl, 5 μM
  mean luminescent intensity (RLuc pDNA): 44329 RLU
ARPE19 cells; Petroselinyl, 10 μM
  mean luminescent intensity (RLuc pDNA): 2986 RLU
ARPE19 cells; Petroselinyl, 15 μM
  mean luminescent intensity (RLuc pDNA): 1967 RLU
HCT116 cells; Myristoleyl, 2.5 μM
  mean fluorescence intensity (EGFP mRNA): 2974
HCT116 cells; Myristoleyl, 5 μM
  mean fluorescence intensity (EGFP mRNA): 4154
HCT116 cells; Myristoleyl, 10 μM
  mean fluorescence intensity (EGFP mRNA): 4744
HCT116 cells; Palmitoleyl, 2.5 μM
  mean fluorescence intensity (EGFP mRNA): 4249
HCT116 cells; Petroselinyl, 2.5 μM
  mean fluorescence intensity (EGFP mRNA): 1065
HCT116 cells; Petroselinyl, 5 μM
  mean fluorescence intensity (EGFP mRNA): 490
HCT116 cells; Petroselinyl, 10 μM
  mean fluorescence intensity (EGFP mRNA): 61
[1]; Dodecanal, 5 μM, Hela cells
  percentage of gene editing, GFP fluorescence intensity decrease (% of reduction): 37%
[1]; Dodecanal, 10 μM, HeLa cells
  percentage of gene editing, GFP fluorescence intensity decrease (% of reduction): 78%
[1]; 5 μM, Ole tail
  % GFP silencing due to gene editing (Cas9-RNP): 73%
[1]; 5 μM, Pal tail
  % GFP silencing due to gene editing (Cas9-RNP): 73%
[1]; Myristoleyl, 5 μM, HeLa cells
  percentage of gene editing, GFP fluorescence intensity decrease (% of reduction): 48%
[1]; Myristoleyl, 10 μM, HeLa cells
  percentage of gene editing, GFP fluorescence intensity decrease (% of reduction): 85%
[1]; Oleyl, 5 μM, HeLa cells
  percentage of gene editing, GFP fluorescence intensity decrease (% of reduction): 46%
[1]; Oleyl, 10 μM, HeLa cells
  percentage of gene editing, GFP fluorescence intensity decrease (% of reduction): 73%
[1]; Palmitoleyl, 5 μM, HeLa cells
  percentage of gene editing, GFP fluorescence intensity decrease (% of reduction): 48%
[1]; Palmitoleyl, 10 μM, HeLa cells
  percentage of gene editing, GFP fluorescence intensity decrease (% of reduction): 73%
[1]; Palmitoleyl, 15 μM, Hela cells
  percentage of gene editing, GFP fluorescence intensity decrease (% of reduction): 78%
[1]; Petroselinyl, 5 μM, HeLa cells
  percentage of gene editing, GFP fluorescence intensity decrease (% of reduction): 23%
[1]; Petroselinyl, 10 μM, Hela cells
  percentage of gene editing, GFP fluorescence intensity decrease (% of reduction): 69%
[1]; Petroselinyl, 15 μM, Hela cells
  percentage of gene editing, GFP fluorescence intensity decrease (% of reduction): 80%

## Ac-RRLK*RLLRRLK*RL-NH2 (Ac-RRLK(NHNH2)RLLRRLK(NHNH2)RL-NH2; not fully specified; printed as Ac-RRLK*RLLRRLK*RL-NH2; also: K*4,K*11: native or modified lysine (ε-amide to a linker)) [Peptide 13.2]
ARPE19 cells; Oleyl, 5 μM
  mean luminescent intensity (RLuc pDNA): 1077 RLU
ARPE19 cells; Oleyl, 10 μM
  mean luminescent intensity (RLuc pDNA): 499 RLU
ARPE19 cells; Oleyl, 15 μM
  mean luminescent intensity (RLuc pDNA): 641 RLU
[1]; Oleyl, 5 μM, HeLa cells
  percentage of gene editing, GFP fluorescence intensity decrease (% of reduction): 21%
[1]; Oleyl, 10 μM, HeLa cells
  percentage of gene editing, GFP fluorescence intensity decrease (% of reduction): 62%

Reference: patent publication US20250304623A1, “PEPTIDES FOR INTRACELLULAR DELIVERY” (UNIVERSIDADE DE SANTIAGO DE COMPOSTELA, priority 2022, published 2025)
